According to patent US20220264878A1, “HERBICIDAL COMPOSITION CONTAINING R-TYPE PYRIDYLOXY CARBOXYLIC ACID DERIVATIVE AND USE THEREOF” (Qingdao Kingagroot Chemical Compound Co., Ltd., priority 2019, published 2022):

Columns and labels:
Assay in all cases: Post-emergence foliage spray, pot culture, fresh weight inhibition (Tables 1-48, 51-98, 101-148; 24 days)
Format in all cases: in vivo
Solanum nigrum = system: Solanum nigrum
Summary of the method: (§1)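 Greenhouse pot plants (20–30 °C, natural light, 57–72% RH) were sprayed once on foliage at 450 kg/ha and 0.3 MPa, at the 5–6-leaf (grass) or 6–7-leaf (broadleaf) stage. Compounds were in acetone diluted with 0.1% Tween-80 water. Surviving shoots were weighed at 24 days; dead plants counted as zero.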

Chloris virgata = system: Chloris virgata
Summary of the method: as §1

Sonchus oleraceus L. = system: Sonchus oleraceus L.
Summary of the method: as §1

Setaria faberi = system: Setaria faberi
Summary of the method: as §1

Sinapis arvensis = system: Sinapis arvensis
Summary of the method: as §1

Beckmannia syzigachne = system: Beckmannia syzigachne
Summary of the method: as §1

Xanthium strumarium = system: Xanthium strumarium
Summary of the method: as §1

Acalypha australis = system: Acalypha australis
Summary of the method: as §1

Ammannia arenaria = conditions: Table 103
Summary of the method: as §1

Cirsium setosum = conditions: Table 111
Summary of the method: as §1

Stellaria media = conditions: Table 105
Summary of the method: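 Pot-grown weeds were thinned to 15 per pot (45 per treatment) and sprayed on foliage at the 5–6-leaf stage for grasses or the 6–7-leaf stage for broadleaves. Agents were dissolved in acetone with 0.1% Tween-80 and applied at 450 kg/ha spray volume and 0.3 MPa. Plants were then kept in a greenhouse. Above-ground fresh weight of survivors, with dead plants counted as zero, gave inhibition versus a solvent/emulsifier blank.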

Abutilon theophrasti = system: Abutilon theophrasti
Summary of the method: as §1

Capsella bursa-pastoris = system: Capsella bursa-pastoris
Summary of the method: as §1

Sonchus arvensis = system: Sonchus arvensis
Summary of the method: as §1

Ipomoea purpurea = conditions: Table 98
Summary of the method: as §1

Conyza Canadensis = system: Conyza Canadensis
Summary of the method: as §1

Setaria glauca = conditions: Table 84
Summary of the method: as §1

C[C@@H](Oc1nc(F)c(Cl)c(N)c1Cl)C(=O)[O-].[Na+] [Compound A3, A1 sodium salt]
Control effect (%) of A applied alone in corresponding dose (Solanum nigrum; A 75 g a.i./ha): 16.9%
Control effect (%) of A applied alone in corresponding dose (Solanum nigrum; A 150 g a.i./ha): 37.5%
Control effect (%) of A applied alone in corresponding dose (Chloris virgata; A 75 g a.i./ha): 22.0%
Control effect (%) of A applied alone in corresponding dose (Chloris virgata; A 150 g a.i./ha): 48.3%
Control effect (%) of A applied alone in corresponding dose (Sonchus oleraceus L.; A 75 g a.i./ha): 33.8%
Control effect (%) of A applied alone in corresponding dose (Sonchus oleraceus L.; A 150 g a.i./ha): 55.5%
Control effect (%) of A applied alone in corresponding dose (Setaria faberi; A 30 g a.i./ha): 32.5%
Control effect (%) of A applied alone in corresponding dose (Setaria faberi; A 60 g a.i./ha): 55.4%
Control effect (%) of A applied alone in corresponding dose (Sinapis arvensis; A 15 g a.i./ha): 33.2%
Control effect (%) of A applied alone in corresponding dose (Sinapis arvensis; A 30 g a.i./ha): 72.7%
Control effect (%) of A applied alone in corresponding dose (Beckmannia syzigachne; A 75 g a.i./ha): 23.0%
Control effect (%) of A applied alone in corresponding dose (Beckmannia syzigachne; A 150 g a.i./ha): 42.8%
Control effect (%) of A applied alone in corresponding dose (Xanthium strumarium; A 7.5 g a.i./ha): 40.8%
Control effect (%) of A applied alone in corresponding dose (Xanthium strumarium; A 15 g a.i./ha): 77.2%
Control effect (%) of A applied alone in corresponding dose (Acalypha australis; A 75 g a.i./ha): 20.7%
Control effect (%) of A applied alone in corresponding dose (Acalypha australis; A 150 g a.i./ha): 51.6%
Control effect (%) of A applied alone in corresponding dose (Ammannia arenaria; 75 g a.i./ha): 30.4%
Control effect (%) of A applied alone in corresponding dose (Ammannia arenaria; 150 g a.i./ha): 66.2%
Control effect (%) of A applied alone in corresponding dose (Cirsium setosum; 30 g a.i./ha): 31.5%
Control effect (%) of A applied alone in corresponding dose (Cirsium setosum; 60 g a.i./ha): 64.3%
Control effect (%) of A applied alone in corresponding dose (Stellaria media; 7.5 g a.i./ha): 34.1%
Control effect (%) of A applied alone in corresponding dose (Stellaria media; 15 g a.i./ha): 67.9%

CC(C)N1C(=O)c2ccccc2NS1(=O)=O [bentazone]
Control effect (%) of B applied alone in corresponding dose (Abutilon theophrasti; bentazone 18.75 g a.i./ha): 5.9%
Control effect (%) of B applied alone in corresponding dose (Abutilon theophrasti; bentazone 37.5 g a.i./ha): 11.8%
Control effect (%) of B applied alone in corresponding dose (Abutilon theophrasti; bentazone 75 g a.i./ha): 49.0%
Control effect (%) of B applied alone in corresponding dose (Abutilon theophrasti; bentazone 150 g a.i./ha): 69.1%
Control effect (%) of B applied alone in corresponding dose (Xanthium strumarium; B 18.75 g a.i./ha): 10.9%
Control effect (%) of B applied alone in corresponding dose (Xanthium strumarium; B 37.5 g a.i./ha): 16.1%
Control effect (%) of B applied alone in corresponding dose (Xanthium strumarium; B 75 g a.i./ha): 46.6%
Control effect (%) of B applied alone in corresponding dose (Xanthium strumarium; B 150 g a.i./ha): 76.5%

Cc1nn(C)cc1C(=O)Oc1c(C(=O)c2ccc(C(F)(F)F)cc2S(C)(=O)=O)c(C)nn1C [bipyrazone]
Control effect (%) of B applied alone in corresponding dose (Sinapis arvensis; B 1.875 g a.i./ha): 9.9%
Control effect (%) of B applied alone in corresponding dose (Sinapis arvensis; B 3.75 g a.i./ha): 23.8%
Control effect (%) of B applied alone in corresponding dose (Sinapis arvensis; B 7.5 g a.i./ha): 50.8%
Control effect (%) of B applied alone in corresponding dose (Sinapis arvensis; B 15 g a.i./ha): 83.7%
Control effect (%) of B applied alone in corresponding dose (Capsella bursa-pastoris; bipyrazone 18.75 g a.i./ha): 2.9%
Control effect (%) of B applied alone in corresponding dose (Capsella bursa-pastoris; bipyrazone 37.5 g a.i./ha): 12.9%
Control effect (%) of B applied alone in corresponding dose (Capsella bursa-pastoris; bipyrazone 75 g a.i./ha): 51.1%
Control effect (%) of B applied alone in corresponding dose (Capsella bursa-pastoris; bipyrazone 150 g a.i./ha): 80.3%

CCOc1nc(F)cc2nc(S(=O)(=O)Nc3c(Cl)cccc3C(=O)OC)nn12 [cloransulam-methyl]
Control effect (%) of B applied alone in corresponding dose (Sonchus arvensis; cloransulam-methyl 1.875 g a.i./ha): 6.5%
Control effect (%) of B applied alone in corresponding dose (Sonchus arvensis; cloransulam-methyl 3.75 g a.i./ha): 15.0%
Control effect (%) of B applied alone in corresponding dose (Sonchus arvensis; cloransulam-methyl 7.5 g a.i./ha): 52.8%
Control effect (%) of B applied alone in corresponding dose (Sonchus arvensis; cloransulam-methyl 15 g a.i./ha): 72.9%
Control effect (%) of B applied alone in corresponding dose (Cirsium setosum; 1.875 g a.i./ha): 13.6%
Control effect (%) of B applied alone in corresponding dose (Cirsium setosum; 3.75 g a.i./ha): 23.1%
Control effect (%) of B applied alone in corresponding dose (Cirsium setosum; 7.5 g a.i./ha): 53.8%
Control effect (%) of B applied alone in corresponding dose (Cirsium setosum; 15 g a.i./ha): 71.9%

CC(C)N(C)S(=O)(=O)NC(=O)c1cc(-n2c(=O)cc(C(F)(F)F)n(C)c2=O)c(F)cc1Cl [saflufenacil]
Control effect (%) of B applied alone in corresponding dose (Ipomoea purpurea; 3.75 g a.i./ha): 7.9%
Control effect (%) of B applied alone in corresponding dose (Ipomoea purpurea; 7.5 g a.i./ha): 16.0%
Control effect (%) of B applied alone in corresponding dose (Ipomoea purpurea; 15 g a.i./ha): 41.3%
Control effect (%) of B applied alone in corresponding dose (Ipomoea purpurea; 30 g a.i./ha): 75.9%
Control effect (%) of B applied alone in corresponding dose (Sonchus oleraceus L.; B 3.75 g a.i./ha): 5.4%
Control effect (%) of B applied alone in corresponding dose (Sonchus oleraceus L.; B 7.5 g a.i./ha): 13.9%
Control effect (%) of B applied alone in corresponding dose (Sonchus oleraceus L.; B 15 g a.i./ha): 40.9%
Control effect (%) of B applied alone in corresponding dose (Sonchus oleraceus L.; B 30 g a.i./ha): 76.6%
Control effect (%) of B applied alone in corresponding dose (Conyza Canadensis; saflufenacil 3.75 g a.i./ha): 3.0%
Control effect (%) of B applied alone in corresponding dose (Conyza Canadensis; saflufenacil 7.5 g a.i./ha): 11.9%
Control effect (%) of B applied alone in corresponding dose (Conyza Canadensis; saflufenacil 15 g a.i./ha): 39.2%
Control effect (%) of B applied alone in corresponding dose (Conyza Canadensis; saflufenacil 30 g a.i./ha): 76.5%

Cc1c(C(=O)c2cnn(C)c2O)ccc(S(C)(=O)=O)c1C1=NOCC1 [topramezone]
Control effect (%) of B applied alone in corresponding dose (Setaria glauca; 1.875 g a.i./ha): 7.3%
Control effect (%) of B applied alone in corresponding dose (Setaria glauca; 3.75 g a.i./ha): 10.6%
Control effect (%) of B applied alone in corresponding dose (Setaria glauca; 7.5 g a.i./ha): 35.8%
Control effect (%) of B applied alone in corresponding dose (Setaria glauca; 15 g a.i./ha): 72.3%
Control effect (%) of B applied alone in corresponding dose (Setaria faberi; B 1.875 g a.i./ha): 3.2%
Control effect (%) of B applied alone in corresponding dose (Setaria faberi; B 3.75 g a.i./ha): 11.7%
Control effect (%) of B applied alone in corresponding dose (Setaria faberi; B 7.5 g a.i./ha): 36.5%
Control effect (%) of B applied alone in corresponding dose (Setaria faberi; B 15 g a.i./ha): 75.4%
